Assays:
Format in all cases: in vivo, human
[1] = test system: patients with ADSL deficiency; assay: Vineland scale (adaptive skills) during allopurinol treatment; design: Vineland standardized score, Communication / Vineland standardized score, Daily life / Vineland standardized score, Social skills / Vineland standardized score, Motor skills / Vineland standardized score, TOTAL: scale not given here
Description: (§1) Clinical characterization of the patients was carried out before starting treatment (T1) in accordance with the ICD 10 classification, using standardized tools: • A semi-structured interview by means of the Autism Diagnostic Interview (ADI-R): this is a semi-structured interview intended to classify symptoms reported by parents in the domain of communication, social interaction, restricted and stereotyped behaviours or sensory issues. Scores are established for the current period and, if necessary, for the period when the difficulties were most serious, between the ages of 4 and 5 years. A score is established for each of the three domains based on responses provided by the parents and the judgement of the interviewer. Scores above the thresholds in the 3 domains support a diagnosis of autism, and in one or two domains support a diagnosis of a pervasive developmental disorder. Scores below the thresholds in the 3 domains make it possible to rule out diagnosis of an autism spectrum disorder if the ADI-R results converge with the clinical assessment of the child. • A semi-structured interview using the Vineland 2 scale: this is a semi-structured interview which makes it possible to assess the adaptive skills of the child in the domains of communication, daily life, social skills and motor skills. From the description of their child's daily living skills, equivalent developmental ages and standardized scores are calculated, making it possible to describe the developmental and adaptive profile of the child. • A developmental assessment using the Psychoeducational Profile (PEP 3): this is a direct assessment of the skills of the child in several domains of their development, particularly suited to children who display a developmental disability. Six domains of development are assessed: verbal and preverbal cognition (VPC), expressive language (EL), receptive language (RL), gross motor skills (GM), fine motor skills (FM) and visual-motor imitation (VMI). The results are expressed in terms of equivalent developmental age and emerging score, when the exercises are partially completed. The number of emerging skills, or the difference between the actual ages and the emerging scores, are evidence of the development potential of the children. • The Conners scale: this is an assessment scale intended to quantify the symptoms of inattentiveness, agitation, impulsiveness, anxiety, somatization, behavioural difficulties and learning difficulties. There are several versions of the questionnaire, one for parents, the other for teachers or professionals. The scoring makes it possible to obtain an overall standardized score, considered to be significant when it is greater than 1.5.
(§2) Clinical re-assessments were carried out 6 months and one year after treatment with allopurinol and compared to the first assessment in the absence of treatment with allopurinol. They comprised: • At 6 months: scoring of the Vineland and Conners scales • At 12 months: scoring of the Vineland and Conners scales and completion of PEP-3.
Clinical progress at 200 mg of allopurinol was measured for each child based on the Conner and Vineland scale scores before treatment (T1), at 6 months (T2) and at 12 months of treatment (T3) with regard to behaviour and function.

[2] = test system: patients with ADSL deficiency; assay: Urinary assay of SAICAr and S-Adenosine by HPLC-MS/MS in patients treated with allopurinol; details: for urinary SAICAr: three children, allopurinol 200 mg/d
Description: SAICAr and S-Ado metabolites in urine were assayed using HPLC-DAD and HPLC coupled with tandem mass spectrometry (HPLC-MS/MS) according to the techniques recently described (Ceballos-Picot et al. 2015; Zikanova et al. 2014).
The patients received allopurinol daily by the oral route (200 mg/d).

[3] = test system: patients with ADSL deficiency; assay: Psychoeducational Profile (PEP3) developmental assessment during allopurinol treatment
Description: as §1, §2
Developmental progress was measured by means of developmental ages on the PEP3 scale before treatment (T1) and after a year of treatment (T3).

[4] = Patient 1, T2 (6 months), T1 69
[5] = Patient 1, T3 (12 months), T1 69
[6] = patient P1, T2 (6 months) vs T1
[7] = patient P1, T3 (12 months) vs T1
[8] = patient P2, T2 (6 months) vs T1
[9] = patient P2, T3 (12 months) vs T1
[10] = patient P3, T2 (6 months) vs T1
[11] = patient P3, T3 (12 months) vs T1
[12] = Patient 1, T3 (12 months), T1 1.7
[13] = Patient 2, T3 (12 months), T1 2.3
[14] = Patient 3, T3 (12 months), T1 1.4

## O=c1ncnc2[nH][nH]cc1-2 [allopurinol, 1,2-dihydro-4H-pyrazolo[3,4-d]pyrimidin-4-one]
[1]; 3 patients, during treatment, more pronounced for communication
  standardized scores on the Vineland scale in all domains: improvement
[1]; Patient 1, T2 (6 months), T1 67
  Vineland standardized score, Communication: 65
[1]; [4]
  Vineland standardized score, Daily life: 71
  Vineland standardized score, TOTAL: 76
[1]; Patient 1, T2 (6 months), T1 73
  Vineland standardized score, Social skills: 66
[1]; Patient 1, T3 (12 months), T1 67
  Vineland standardized score, Communication: 75
[1]; [5]
  Vineland standardized score, Daily life: 74
  Vineland standardized score, TOTAL: 74
[1]; Patient 1, T3 (12 months), T1 73
  Vineland standardized score, Social skills: 75
[1]; Patient 2, T2 (6 months), T1 57
  Vineland standardized score, Communication: 72
[1]; Patient 2, T2 (6 months), T1 61
  Vineland standardized score, Motor skills: 67
[1]; Patient 2, T2 (6 months), T1 69
  Vineland standardized score, TOTAL: 79
[1]; Patient 2, T2 (6 months), T1 79
  Vineland standardized score, Social skills: 83
[1]; Patient 2, T2 (6 months), T1 81
  Vineland standardized score, Daily life: 87
[1]; Patient 2, T3 (12 months), T1 57
  Vineland standardized score, Communication: 75
[1]; Patient 2, T3 (12 months), T1 61
  Vineland standardized score, Motor skills: 85
[1]; Patient 2, T3 (12 months), T1 69
  Vineland standardized score, TOTAL: 82
[1]; Patient 2, T3 (12 months), T1 79
  Vineland standardized score, Social skills: 83
[1]; Patient 2, T3 (12 months), T1 81
  Vineland standardized score, Daily life: 87
[1]; Patient 3, T2 (6 months), T1 65
  Vineland standardized score, Communication: 69
[1]; Patient 3, T2 (6 months), T1 67
  Vineland standardized score, Motor skills: 70
[1]; Patient 3, T2 (6 months), T1 71
  Vineland standardized score, TOTAL: 77
[1]; Patient 3, T2 (6 months), T1 75
  Vineland standardized score, Daily life: 87
[1]; Patient 3, T2 (6 months), T1 76
  Vineland standardized score, Social skills: 83
[1]; Patient 3, T3 (12 months), T1 65
  Vineland standardized score, Communication: 74
[1]; Patient 3, T3 (12 months), T1 67
  Vineland standardized score, Motor skills: 72
[1]; Patient 3, T3 (12 months), T1 71
  Vineland standardized score, TOTAL: 80
[1]; Patient 3, T3 (12 months), T1 75
  Vineland standardized score, Daily life: 87
[1]; Patient 3, T3 (12 months), T1 76
  Vineland standardized score, Social skills: 88
[2]; patient P1, 6 months (T2) of allopurinol 200 mg/d oral, T1 37.7
  SAICAr, urine: 32.9 μmol/mmol creat
[2]; patient P1, 6 months (T2) of allopurinol 200 mg/d oral, before treatment (T1) 55.4
  S-Adenosine, urine: 51.6 μmol/mmol creat
[2]; patient P1, 12 months (T3) of allopurinol 200 mg/d oral, T1 37.7
  SAICAr, urine: 19.4 μmol/mmol creat
[2]; patient P1, 12 months (T3) of allopurinol 200 mg/d oral, T1 55.4
  S-Adenosine, urine: 36.4 μmol/mmol creat
[2]; [6]
  % variation S-Adenosine: −6.9%
  % variation SAICAr: −12.7%
[2]; patient P1, T2 (6 months), T1 1.47
  S-Ado/SAICAr ratio, urine: 1.57
[2]; [7]
  % variation S-Adenosine: −34.3%
  % variation SAICAr: −48.6%
[2]; patient P1, T3 (12 months), T1 1.47
  S-Ado/SAICAr ratio, urine: 1.88
[2]; patient P2, 6 months (T2) of allopurinol 200 mg/d oral, T1 95.4
  SAICAr, urine: 57.9 μmol/mmol creat
[2]; patient P2, 6 months (T2) of allopurinol 200 mg/d oral, T1 116.3
  S-Adenosine, urine: 79.3 μmol/mmol creat
[2]; patient P2, 12 months (T3) of allopurinol 200 mg/d oral, T1 95.4
  SAICAr, urine: 46.8 μmol/mmol creat
[2]; patient P2, 12 months (T3) of allopurinol 200 mg/d oral, T1 116.3
  S-Adenosine, urine: 63.7 μmol/mmol creat
[2]; [8]
  % variation S-Adenosine: −31.8%
  % variation SAICAr: −39.3%
[2]; patient P2, T2 (6 months), T1 1.22
  S-Ado/SAICAr ratio, urine: 1.37
[2]; [9]
  % variation S-Adenosine: −45.2%
  % variation SAICAr: −51.0%
[2]; patient P2, T3 (12 months), T1 1.22
  S-Ado/SAICAr ratio, urine: 1.36
[2]; patient P3, 6 months (T2) of allopurinol 200 mg/d oral, T1 148.6
  S-Adenosine, urine: 113.3 μmol/mmol creat
[2]; patient P3, 6 months (T2) of allopurinol 200 mg/d oral, T1 167.9
  SAICAr, urine: 96.3 μmol/mmol creat
[2]; patient P3, 12 months (T3) of allopurinol 200 mg/d oral, T1 148.6
  S-Adenosine, urine: 98.2 μmol/mmol creat
[2]; patient P3, 12 months (T3) of allopurinol 200 mg/d oral, T1 167.9
  SAICAr, urine: 72.9 μmol/mmol creat
[2]; [10]
  % variation S-Adenosine: −23.8%
  % variation SAICAr: −42.7%
[2]; patient P3, T2 (6 months), T1 0.89
  S-Ado/SAICAr ratio, urine: 1.18
[2]; [11]
  % variation S-Adenosine: −33.9%
  % variation SAICAr: −56.6%
[2]; patient P3, T3 (12 months), T1 0.89
  S-Ado/SAICAr ratio, urine: 1.35
[2]; after 6 and 12 months of treatment
  urinary SAICAr: significant reduction
[2]; after 6 months
  urinary SAICAr: significant reduction
[3]; 3 patients, during treatment, rate remains slow with respect to chronological age
  equivalent developmental ages: progression
[3]; [12]
  PEP3 developmental age, EL (expressive language): 1.8
  PEP3 developmental age, RL (receptive language): 2.3
[3]; Patient 1, T3 (12 months), T1 2.2
  PEP3 developmental age, GM: 2.8
[3]; Patient 1, T3 (12 months), T1 2.5
  PEP3 developmental age, FM: 2.8
[3]; Patient 1, T3 (12 months), T1 2.6, figures read as years.months per Table 2
  PEP3 developmental age, VPC (verbal and preverbal cognition): 3
[3]; Patient 1, T3 (12 months), T1 2.8
  PEP3 developmental age, VMI (visual-motor imitation): 3.3
[3]; Patient 2, T3 (12 months), T1 1.3
  PEP3 developmental age, EL (expressive language): 1.7
[3]; Patient 2, T3 (12 months), T1 1.8
  PEP3 developmental age, RL (receptive language): 2.7
[3]; Patient 2, T3 (12 months), T1 1.9
  PEP3 developmental age, GM: 3.3
[3]; [13]
  PEP3 developmental age, FM: 4.0
  PEP3 developmental age, VPC (verbal and preverbal cognition): 2.3
[3]; Patient 2, T3 (12 months), T1 6
  PEP3 developmental age, VMI (visual-motor imitation): 6.0
[3]; [14]
  PEP3 developmental age, EL (expressive language): 2.3
  PEP3 developmental age, GM: 3.4
[3]; Patient 3, T3 (12 months), T1 1.5
  PEP3 developmental age, RL (receptive language): 2
[3]; Patient 3, T3 (12 months), T1 1.6
  PEP3 developmental age, VPC (verbal and preverbal cognition): 2.4
[3]; Patient 3, T3 (12 months), T1 2
  PEP3 developmental age, FM: 3.6
[3]; Patient 3, T3 (12 months), T1 2.1
  PEP3 developmental age, VMI (visual-motor imitation): 3.3
[3]; patient P2, T1 to T3
  PEP3 developmental age, fine motor skills and receptive language: approximately a year
  PEP3 developmental age, gross motor skills: improvement of more than a year
[3]; patient P3, T1 to T3
  PEP3 developmental level, expressive language and preverbal and verbal cognition: gain of more than a year

Reference: patent US20190298722A1, “USE OF AN INHIBITOR OF THE DE NOVO SYNTHESIS OF PURINES, IN THE TREATMENT OF ADENYLOSUCCINATE LYASE DEFICIENCY” (ASSISTANCE PUBLIQUE-HOPITAUX DE PARIS, priority 2016, published 2019)
